Peptide text beside a SMILES is read from it.
What was measured:
[1] = Concentration required to inhibit the maximum [14C]Gly-Sar uptake by Renal peptide transporter PepT2 in SKPT cells; type: cell-based; conditions: Rattus norvegicus
[2] = Affinity against Renal peptide transporter PepT2 in SKPT cells was measured by the inhibition of [14C]Gly-Sar uptake; type: cell-based, Rattus norvegicus
[3] = biological target: T1, Solute carrier family 15 member 1 (Homo sapiens, UniProt P46059); assay: Concentration required to inhibit the maximum [14C]Gly-Sar uptake by human Intestinal peptide transporter PepT1 in Caco-2 cells; type: cell-based
T1 sequence (P46059 whole entry): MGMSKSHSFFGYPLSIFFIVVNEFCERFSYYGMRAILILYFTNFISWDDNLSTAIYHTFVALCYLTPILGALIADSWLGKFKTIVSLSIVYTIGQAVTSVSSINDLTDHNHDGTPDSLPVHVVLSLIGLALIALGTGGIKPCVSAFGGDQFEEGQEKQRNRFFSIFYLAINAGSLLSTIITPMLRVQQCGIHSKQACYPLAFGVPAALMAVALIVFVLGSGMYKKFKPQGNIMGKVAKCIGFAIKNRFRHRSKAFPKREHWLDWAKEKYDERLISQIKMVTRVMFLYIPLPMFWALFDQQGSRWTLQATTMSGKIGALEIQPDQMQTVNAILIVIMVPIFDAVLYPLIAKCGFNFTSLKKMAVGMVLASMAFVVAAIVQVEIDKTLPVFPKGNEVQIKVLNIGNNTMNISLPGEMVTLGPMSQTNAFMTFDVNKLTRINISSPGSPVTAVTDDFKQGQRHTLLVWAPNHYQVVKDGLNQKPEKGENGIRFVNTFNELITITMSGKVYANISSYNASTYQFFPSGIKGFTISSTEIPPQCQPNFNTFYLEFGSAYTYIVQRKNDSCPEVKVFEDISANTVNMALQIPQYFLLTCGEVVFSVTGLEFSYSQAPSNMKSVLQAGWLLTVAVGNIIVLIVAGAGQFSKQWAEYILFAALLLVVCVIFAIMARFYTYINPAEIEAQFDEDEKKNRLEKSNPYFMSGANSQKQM

[4] = biological target: T1, Solute carrier family 15 member 1; assay: Affinity fo the compound against human Intestinal peptide transporter PepT1 in Caco-2 cells was measured as inhibition of [14C]Gly-Sar uptake; type: cell-based

CC1=C(C(=O)O)N2C(=O)[C@@H](NC(=O)[C@H](N)c3ccccc3)[C@H]2SC1 [CEPHALEXIN ANHYDROUS]
IC50 [1]: 41.6 µM
Ki [2]: 35.2 µM

N[C@@H](Cc1ccccc1)[C@H](O)/C=C/C(=O)O
IC50 [1]: 4110 µM
IC50 [3]: 26800 µM
Ki [4]: 26400 µM
Ki [2]: 3480 µM

N[C@@H](Cc1ccccc1)[C@H](O)CCC(=O)O
IC50 [1]: 8800 µM
Ki [2]: 7450 µM

N[C@@H](Cc1ccccc1)C(=O)CCC(=O)O
IC50 [1]: 22.2 µM
IC50 [3]: 400 µM
Ki [4]: 400 µM
Ki [2]: 18.8 µM

N[C@@H](Cc1ccccc1)[C@@H](O)/C=C/C(=O)O
IC50 [1]: 1590 µM
IC50 [3]: 40500 µM
Ki [4]: 39800 µM
Ki [2]: 1350 µM

N[C@@H](Cc1ccccc1)[C@@H](O)CCC(=O)O
IC50 [1]: 8180 µM
Ki [2]: 6920 µM

N[C@@H](Cc1ccccc1)C(=O)NCC(=O)O (H-Phe-Gly-OH)
IC50 [1]: 17.2 µM
IC50 [3]: 200 µM
Ki [4]: 200 µM
Ki [2]: 14.6 µM

Reference: ChEMBL document CHEMBL1149319, “Phe-Gly dipeptidomimetics designed for the di-/tripeptide transporters PEPT1 and PEPT2: synthesis and biological investigations” (J Med Chem, 2004)
